# Laboratory results taken from patent US11845760B2, “PRMT5 inhibitors” (AMGEN INC., priority 2020, dated 2023).
# Where two headings read alike, the source gives them in different places.
# What was measured:
# HCT116 MTAP null cells = assay: HCT116 MTAP null cell line proliferation (CellTiter-Glo cell viability, 6 days); format: cell-based; conditions: HCT116 MTAP null cells, 6 days of treatment, CellTiter-Glo cell viability, read-out: HCT-116 MTAP null IC50
# Procedure, shortened: (§1)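 Viability by CellTiter-Glo after 6 days' drug exposure in wild-type HCT116 and its MTAP-null knockout, with DMSO-only control. Dosing used either 1:3 steps (top 1 or 10 μM) or 22 points in 1:2 steps (top 10 or 50 μM). IC50 taken where the fitted curve crosses 50% of control.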
# HCT116 WT cells = assay: HCT116 WT cell line proliferation (CellTiter-Glo cell viability, 6 days); format: cell-based; conditions: HCT116 WT (parent) cells, 6 days of treatment, CellTiter-Glo cell viability, read-out: HCT-116 WT IC50
# Procedure, shortened: as §1
Compound,"IC50 (HCT116 MTAP null cells; HCT116-MTAP null, 144 h) [nM]","IC50 (HCT116 WT cells; Homo sapiens, HCT-116, 144 h) [nM]",IC50 (HCT116 MTAP null cells) [nM],IC50 (HCT116 WT cells) [nM]
"Cn1ncc2c(N)nc3cc(F)c(C(=O)N4CC[C@H](Cc5ccc(C(F)(F)F)cc5)C4)cc3c21 (single isomer, unassigned) [Example 470]",340,5300,,
"Nc1nc2cc(Cl)c(C(=O)N3CC(c4ccc(C(F)(F)F)cc4)C3)cc2c2c1COC2 [Example 430, (4-amino-7-chloro-1,3-dihydrofuro[3,4-c]quinolin-8-yl)(3-(4-(trifluoromethyl)phenyl)-1-azetidinyl)methanone]",445,12600,,
"C[C@H]1OCc2c1c(N)nc1ccc(C(=O)N3C[C@H](c4ccc(Cl)cc4)C[C@H]3C3CC3)cc21 [Example 398, ((3R)-4-amino-3-methyl-1,3-dihydrofuro[3,4-c]quinolin-8-yl)((2S,4S)-4-(4-chlorophenyl)-2-cyclopropyl-1-pyrrolidinyl)methanone]",609,13200,,
"Cc1ccccc1C1COCCN1C(=O)c1ccc2nc(N)c3c(c2c1)COC3 (racemic) [Example 362, (4-amino-1,3-dihydrofuro[3,4-c]quinolin-8-yl)-[rac-(3S)-3-(o-tolyl)morpholin-4-yl]methanone]",3410,> 10000,,
"Cn1ncc2c(N)nc3cc(F)c(C(=O)N4CC[C@@H](Oc5ccc(C(F)(F)F)cc5)C4)cc3c21 (single isomer, unassigned) [Example 471]",283,6010,,
"Nc1nc2ccc(C(=O)N3CCCC[C@H]3c3ccc(C(F)(F)F)cc3)cc2c2ccsc12 (single isomer, unassigned) [Example 489]",> 1000,5320,,
"Nc1nc2ncc(C(=O)N3CCOC[C@@H]3c3ccc(OC(F)(F)F)cc3)cc2c2c1COC2 [Example 507, (4-amino-1,3-dihydrofuro[3,4-c][1,8]naphthyridin-8-yl)-[(3S)-3-[4-(trifluoromethoxy)phenyl]morpholin-4-yl]methanone]",843,> 10000,,
"Nc1nc2ccc(C(=O)N3CCOC[C@@H]3c3ccc(C(F)(F)F)cc3)cc2n2ccnc12 [Example 403, (4-aminoimidazo[1,2-a]quinoxalin-8-yl)((3S)-3-(4-(trifluoromethyl)phenyl)-4-morpholinyl)methanone]",765,673,,
"Nc1nc2cc(Cl)c(C(=O)N3CCOCC3c3ccc(F)c(C(F)(F)F)c3)cc2c2c1COC2 (racemic) [Example 350, (4-amino-7-chloro-1,3-dihydrofuro[3,4-c]quinolin-8-yl)((3R)-3-(4-fluoro-3-(trifluoromethyl)phenyl)-4-morpholinyl)methanone and (4-amino-7-chloro-1,3-dihydrofuro[3,4-c]quinolin-8-yl)((3S)-3-(4-fluoro-3-(trifluoromethyl)phenyl)-4-morpholinyl)methanone]",,,107,2890
"CC1OCc2c1c(N)nc1cnc(C(=O)N3CCOCC3c3ccc(C(F)(F)C(F)(F)F)cc3)cc21 (mixture of isomers) [Example 337, ((3R)-4-amino-3-methyl-1,3-dihydrofuro[3,4-c][1,7]naphthyridin-8-yl)((3S)-3-(4-(pentafluoroethyl)phenyl)-4-morpholinyl)methanone and ((3S)-4-amino-3-methyl-1,3-dihydrofuro[3,4-c][1,7]naphthyridin-8-yl)((3S)-3-(4-(pentafluoroethyl)phenyl)-4-morpholinyl)methanone]",,,30,1460
"Nc1nc2cnc(C(=O)N3CCOCC3c3ccc(OC(F)F)c(F)c3)cc2c2c1COC2 (racemic) [Example 383, (4-amino-1,3-dihydrofuro[3,4-c][1,7]naphthyridin-8-yl)((3R)-3-(4-(difluoromethoxy)-3-fluorophenyl)-4-morpholinyl)methanone and (4-amino-1,3-dihydrofuro[3,4-c][1,7]naphthyridin-8-yl)((3S)-3-(4-(difluoromethoxy)-3-fluorophenyl)-4-morpholinyl)methanone]",,,437,13900
"CCOc1ccc([C@@H]2COC[C@H](C)N2C(=O)c2cc3c4c(c(N)nc3cn2)COC4)nn1 (racemic) [Example 320, (4-amino-1,3-dihydrofuro[3,4-c][1,7]naphthyridin-8-yl)((3R,5S)-3-(6-ethoxy-3-pyridazinyl)-5-methyl-4-morpholinyl)methanone and (4-amino-1,3-dihydrofuro[3,4-c][1,7]naphthyridin-8-yl)((3S,5R)-3-(6-ethoxy-3-pyridazinyl)-5-methyl-4-morpholinyl)methanone]",101,3680,,
"Nc1nc2cc(Cl)c(C(=O)N3CCOCC3c3ccnc(C(F)(F)F)c3)cc2c2c1COC2 (racemic) [Example 353, (4-amino-7-chloro-1,3-dihydrofuro[3,4-c]quinolin-8-yl)((3R)-3-(2-(trifluoromethyl)-4-pyridinyl)-4-morpholinyl)methanone and (4-amino-7-chloro-1,3-dihydrofuro[3,4-c]quinolin-8-yl)((3S)-3-(2-(trifluoromethyl)-4-pyridinyl)-4-morpholinyl)methanone]",,,234,6890

# Further compounds by falling IC50 (HCT116 MTAP null cells; HCT116-MTAP null, 144 h), results first:
"IC50 (HCT116 MTAP null cells; HCT116-MTAP null, 144 h) [nM]","IC50 (HCT116 WT cells; Homo sapiens, HCT-116, 144 h) [nM]",IC50 (HCT116 MTAP null cells) [nM],IC50 (HCT116 WT cells) [nM],Compound
71,3510,,,"CC1(C)CN(C(=O)c2cc3c4c(c(N)nc3cc2F)COC4)C[C@H]1c1ccc(F)cc1 (single isomer, unassigned) [Example 465]"
56,5330,,,"Cn1ncc2c(N)nc3cc(F)c(C(=O)N4CCC(c5ccc(C(F)(F)F)cn5)C4)cc3c21 (racemic) [Example 541, (4-amino-7-fluoro-1-methyl-1H-pyrazolo[4,3-c]quinolin-8-yl)((3R)-3-(5-(trifluoromethyl)-2-pyridinyl)-1-pyrrolidinyl)methanone and (4-amino-7-fluoro-1-methyl-1H-pyrazolo[4,3-c]quinolin-8-yl)((3S)-3-(5-(trifluoromethyl)-2-pyridinyl)-1-pyrrolidinyl)methanone]"
43,1130,,,Nc1nc2cnc(C(=O)N3CCOC[C@@H]3c3ccc(C(F)(F)C(F)(F)F)cc3)cc2c2c1COC2 [Example 511]
30,1810,,,"Nc1nc2cc(F)c(C(=O)N3CCOC[C@@H]3c3ncc(Br)cc3F)cc2c2c1COC2 (single isomer, unassigned) [Example 460]"
15,606,,,"C[C@H]1COC[C@@H](c2ccc(OC(F)F)nn2)N1C(=O)c1cc2c3c(c(N)nc2cc1F)COC3 (racemic) [Example 314, (4-amino-7-fluoro-1,3-dihydrofuro[3,4-c]quinolin-8-yl)((3R,5S)-3-(6-(difluoromethoxy)-3-pyridazinyl)-5-methyl-4-morpholinyl)methanone and (4-amino-7-fluoro-1,3-dihydrofuro[3,4-c]quinolin-8-yl)((3S,5R)-3-(6-(difluoromethoxy)-3-pyridazinyl)-5-methyl-4-morpholinyl)methanone]"
3,58,,,"C[C@H]1COC[C@@H](c2ccc(OC(F)(F)F)cn2)N1C(=O)c1cc2c3c(c(N)nc2cc1Cl)COC3 (racemic) [Example 375, (4-amino-7-chloro-1,3-dihydrofuro[3,4-c]quinolin-8-yl)((3R,5S)-3-methyl-5-(5-(trifluoromethoxy)-2-pyridinyl)-4-morpholinyl)methanone and (4-amino-7-chloro-1,3-dihydrofuro[3,4-c]quinolin-8-yl)((3S,5R)-3-methyl-5-(5-(trifluoromethoxy)-2-pyridinyl)-4-morpholinyl)methanone]"
